According to patent US7635716B2, “Substituted cyclopentanes or cyclopentanones as therapeutic agents” (Allergan, Inc., priority 2005, dated 2009):
Like-named read-outs stand apart in the source and are kept apart here.

Columns and labels:
Assay type in all cases: cell-based
hDP/Gqs5 = target: T1, hDP/Gqs5 (Homo sapiens, UniProt Q13258); assay: FLIPR calcium signal, HEK-293(EBNA) cells
T1 construct: expressed in transfected cells; host or cells: HEK-293(EBNA) cells
T1 sequence (Q13258 1-359): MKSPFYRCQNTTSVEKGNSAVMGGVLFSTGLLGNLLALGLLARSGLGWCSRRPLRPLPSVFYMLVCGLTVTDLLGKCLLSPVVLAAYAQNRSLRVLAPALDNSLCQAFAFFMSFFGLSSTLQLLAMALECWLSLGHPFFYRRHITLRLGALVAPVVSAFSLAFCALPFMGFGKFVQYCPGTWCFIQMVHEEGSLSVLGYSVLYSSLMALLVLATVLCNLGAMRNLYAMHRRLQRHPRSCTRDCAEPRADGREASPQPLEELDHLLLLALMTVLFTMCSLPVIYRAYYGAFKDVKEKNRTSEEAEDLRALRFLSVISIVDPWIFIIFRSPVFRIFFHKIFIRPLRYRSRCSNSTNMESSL

hTP = target: T2, hTP (Homo sapiens, UniProt P21731); assay: FLIPR calcium signal, HEK-293(EBNA) cells
T2 construct: expressed in transfected cells; host or cells: HEK-293(EBNA) cells
T2 sequence (P21731 1-343): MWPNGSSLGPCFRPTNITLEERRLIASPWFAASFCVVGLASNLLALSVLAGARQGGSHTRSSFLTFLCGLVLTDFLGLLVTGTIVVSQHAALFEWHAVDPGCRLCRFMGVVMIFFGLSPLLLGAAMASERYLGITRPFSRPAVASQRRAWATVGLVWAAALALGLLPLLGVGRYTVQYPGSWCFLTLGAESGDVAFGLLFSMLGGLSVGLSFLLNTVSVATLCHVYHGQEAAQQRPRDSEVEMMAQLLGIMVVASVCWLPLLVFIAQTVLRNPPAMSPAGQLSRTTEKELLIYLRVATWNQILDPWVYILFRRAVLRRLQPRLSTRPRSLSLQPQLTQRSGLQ

hEP3A/Gqi5 = target: T3, hEP3A/Gqi5 (Homo sapiens, UniProt P43115); assay: FLIPR calcium signal, HEK-293(EBNA) cells
T3 construct: expressed in transfected cells; host or cells: HEK-293(EBNA) cells
T3 sequence (P43115 1-390): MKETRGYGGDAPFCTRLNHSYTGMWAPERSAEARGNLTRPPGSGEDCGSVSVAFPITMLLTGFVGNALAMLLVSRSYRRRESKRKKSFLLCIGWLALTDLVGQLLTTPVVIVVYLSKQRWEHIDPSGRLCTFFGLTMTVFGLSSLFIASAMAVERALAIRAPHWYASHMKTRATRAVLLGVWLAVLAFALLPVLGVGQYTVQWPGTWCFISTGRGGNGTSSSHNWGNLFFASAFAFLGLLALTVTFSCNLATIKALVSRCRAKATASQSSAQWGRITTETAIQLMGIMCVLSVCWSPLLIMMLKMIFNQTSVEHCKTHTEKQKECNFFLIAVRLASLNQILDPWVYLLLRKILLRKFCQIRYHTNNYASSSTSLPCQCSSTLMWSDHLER

hEP1 = target: T4, hEP1 (Homo sapiens, UniProt P34995); assay: FLIPR calcium signal, HEK-293(EBNA) cells
T4 construct: expressed in transfected cells; host or cells: HEK-293(EBNA) cells
T4 sequence (P34995 1-402): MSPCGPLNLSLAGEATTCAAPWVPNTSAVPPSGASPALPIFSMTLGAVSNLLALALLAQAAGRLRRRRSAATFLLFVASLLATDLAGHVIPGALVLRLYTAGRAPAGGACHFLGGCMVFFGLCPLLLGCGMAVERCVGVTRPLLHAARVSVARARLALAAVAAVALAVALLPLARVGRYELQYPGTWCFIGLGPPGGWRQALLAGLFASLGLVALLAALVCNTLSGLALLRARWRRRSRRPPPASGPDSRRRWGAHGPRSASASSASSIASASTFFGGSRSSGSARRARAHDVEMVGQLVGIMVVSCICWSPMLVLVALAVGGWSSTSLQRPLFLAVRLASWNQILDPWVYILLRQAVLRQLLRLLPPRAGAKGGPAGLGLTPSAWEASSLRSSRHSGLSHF

hEP2 = hEP2 (Homo sapiens, UniProt P43116); assay: hEP2 cAMP functional assay; details: Table 1, second part
[1] = Table 1, first part, triplicate, read-out: functional data (EC50) hDP
[2] = Table 1, second part, quantity not given, values match functional data (EC50) of first part, read-out: Other Receptors hDP
[3] = Table 1, first part, triplicate, read-out: functional data (EC50) hTP
[4] = Table 1, second part, quantity not given, values match functional data (EC50) of first part, read-out: Other Receptors hTP
[5] = Table 1, first part, data represents a single experiment, read-out: functional data (EC50) hEP3A*
[6] = Table 1, second part, quantity not given, values match functional data (EC50) of first part, read-out: Other Receptors hEP3
[7] = Table 1, first part, triplicate, read-out: functional data (EC50) hEP1
[8] = Table 1, second part, quantity not given, values match functional data (EC50) of first part, read-out: Other Receptors hEP1

hEP2, sequence (P43116 whole entry): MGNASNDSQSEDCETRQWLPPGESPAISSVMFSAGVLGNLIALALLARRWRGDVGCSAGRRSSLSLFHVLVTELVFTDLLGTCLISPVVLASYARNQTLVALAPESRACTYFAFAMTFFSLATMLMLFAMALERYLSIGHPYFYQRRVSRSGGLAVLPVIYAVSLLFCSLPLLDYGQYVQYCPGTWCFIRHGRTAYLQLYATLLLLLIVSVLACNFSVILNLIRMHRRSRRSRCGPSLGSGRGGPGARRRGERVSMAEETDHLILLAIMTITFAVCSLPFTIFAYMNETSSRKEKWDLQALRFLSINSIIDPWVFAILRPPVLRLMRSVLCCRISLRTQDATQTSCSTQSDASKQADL

| Compound | EC50 (hDP/Gqs5; [1]) [µM] | EC50 (hDP/Gqs5; [2]) [µM] | EC50 (hTP; [3]) [µM] | EC50 (hTP; [4]) [µM] | EC50 (hEP3A/Gqi5; [5]) [µM] | EC50 (hEP3A/Gqi5; [6]) [µM] | EC50 (hEP1; [7]) [µM] | EC50 (hEP1; [8]) [µM] | EC50 (hEP2) [µM] |
| --- | --- | --- | --- | --- | --- | --- | --- | --- | --- |
| O=C(O)CCCCCC[C@@H]1[C@@H](COc2cc(Cl)cc(Cl)c2)[C@H](O)C[C@H]1Cl [Example 14, 7-[(1R,2S,3R,5R)-5-Chloro-2-(3,5-dichloro-phenoxymethyl)-3-hydroxy-cyclopentyl]-heptanoic acid] | > 10 | > 10 | > 10 | > 10 | 3.49 | 3.49 | > 10 | > 10 | 0.014 |
| (Z)-7-((1R,5S)-2-Oxo-5-phenoxymethyl-cyclopent-3-enyl)-hept-5-enoic acid [Example 3] | – | – | – | > 10 | – | 18.5 | – | > 10 | – |
| O=C(O)CCC/C=C\C[C@@H]1[C@@H](COc2cc(Cl)cc(Cl)c2)[C@H](O)C[C@H]1Cl [Example 12, (Z)-7-[(1R,2S,3R,5R)-5-Chloro-2-(3,5-dichloro-phenoxymethyl)-3-hydroxy-cyclopentyl]-hept-5-enoic acid] | > 10 | > 10 | > 10 | > 10 | 1.26 | 1.26 | > 10 | > 10 | 0.0009 |
| (Z)-7-((1R,2S,3R)-3-Hydroxy-5-oxo-2-phenoxymethyl-cyclopentyl)-hept-5-enoic acid [Example 4] | – | – | > 10 | – | 18.5 | – | > 10 | – | – |

The next lines start with the values.

| EC50 (hDP/Gqs5; [1]) [µM] | EC50 (hDP/Gqs5; [2]) [µM] | EC50 (hTP; [3]) [µM] | EC50 (hTP; [4]) [µM] | EC50 (hEP3A/Gqi5; [5]) [µM] | EC50 (hEP3A/Gqi5; [6]) [µM] | EC50 (hEP1; [7]) [µM] | EC50 (hEP1; [8]) [µM] | EC50 (hEP2) [µM] | Compound |
| --- | --- | --- | --- | --- | --- | --- | --- | --- | --- |
| > 10 | > 10 | > 10 | > 10 | 3.51 | 3.51 | > 10 | > 10 | 0.047 | O=C(O)CCCCCC[C@@H]1[C@@H](COc2ccccc2)[C@H](O)C[C@H]1Cl [Example 10, 7-((1R,2S,3R,5R)-5-Chloro-3-hydroxy-2-phenoxymethyl-cyclopentyl)-heptanoic acid] |
| > 10 | > 10 | > 10 | > 10 | 7.33 | 7.33 | > 10 | > 10 | – | O=C(O)CCC/C=C\C[C@@H]1[C@@H](COc2ccccc2)[C@H](O)C[C@H]1Cl [Example 8, (Z)-7-((1R,2S,3R,5R)-5-Chloro-3-hydroxy-2-phenoxymethyl-cyclopentyl)-hept-5-enoic acid] |
| > 10 | > 10 | > 10 | > 10 | 3.55 | 3.55 | – | – | 0.234 | O=C(O)CCCCCC[C@H]1C(=O)CC[C@@H]1COc1ccccc1 [Example 6, 7-((1R,5S)-2-Oxo-5-phenoxymethyl-cyclopentyl)-heptanoic acid] |
